Source: patent US12018016B2, “Aryl sulfonyl (hydroxy) piperidines as CCR6 inhibitors” (CHEMOCENTRYX, INC., priority 2021, dated 2024)

target: T1, human CCR6 (Homo sapiens, UniProt P51684); assay: Migration assay (chemotaxis, ChemoTX); type: cell-based; conditions: hCCR6-transfected Ba/F3 cells in human serum, migration to recombinant human CCL20 10 nM, 37° C. 45 minutes; read-out: Potency (IC50 value in the migration assay)
T1 construct: expressed in transfected cells; host or cells: Ba/F3 cells (mouse pro-B line)
T1 sequence (P51684 1-374): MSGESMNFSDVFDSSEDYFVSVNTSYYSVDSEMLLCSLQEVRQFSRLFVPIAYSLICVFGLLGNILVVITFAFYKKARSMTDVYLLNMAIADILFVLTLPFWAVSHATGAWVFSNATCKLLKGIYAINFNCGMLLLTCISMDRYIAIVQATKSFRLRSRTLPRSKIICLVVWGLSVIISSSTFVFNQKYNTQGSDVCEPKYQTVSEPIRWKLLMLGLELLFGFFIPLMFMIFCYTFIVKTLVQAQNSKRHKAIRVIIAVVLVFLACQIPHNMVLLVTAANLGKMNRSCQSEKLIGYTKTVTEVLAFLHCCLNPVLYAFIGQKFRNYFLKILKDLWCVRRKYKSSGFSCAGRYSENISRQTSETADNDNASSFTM
Text: A chemotaxis assay can be used to determine the efficacy of potential receptor antagonists at blocking the migration mediated through chemokine receptors, such as CCR6. This assay is routinely performed using the ChemoTX® microchamber system with a 5-μm pore-sized polycarbonate membrane. Chemokine receptor-expressing cells are required for such an assay. In this case, Ba/F3 cells (Palacios et al., Nature, 309:126, 1984) transfected with the gene for human CCR6 under control of the CMV promotor were used. To begin such an assay, hCCR6-transfected Ba/F3 cells are first grown for 24 hr in medium supplemented with sodium butyrate, which increases CCR6 transcription via the CMV promotor. The prepared Ba/F3 cells, are collected by centrifugation at 400×g at room temperature, then suspended at 4 million/ml in human serum. The compound being tested is serially diluted from a maximum final concentration of 1 μM (or an equivalent volume of its solvent (DMSO)) and is then added to the cell/serum mixture. Separately, recombinant human CCL20 (MIP-3α/LARC) at its EC50 concentration (10 nM) is placed in the lower wells of the ChemoTX® plate. The 5-μm (pore size) polycarbonate membrane is placed onto the plate, and 20 μL of the cell/compound mixture is transferred onto each well of the membrane. The plates are incubated at 37° C. for 45 minutes, after which the polycarbonate membranes are removed and 5 μl of the DNA-intercalating dye CyQUANT (Invitrogen, Carlsbad, CA) is added to the lower wells. The amount of fluorescence, corresponding to the number of migrated cells, is measured using a Spectrafluor Plus plate reader (TECAN, San Jose, CA).

SMILES | IC50 [nM]
O=S(=O)(c1ccc(-c2ccc(N3CC4(CNC4)C3)nc2)cc1)N1CC[C@@H](Nc2ccc(C(F)(F)F)cn2)[C@@H](O)C1 [Compound 104] | < 1
Cc1nc2[nH]ccc2cc1-c1ccc(S(=O)(=O)N2CC[C@@H](Nc3ccc(C(F)(F)F)cn3)[C@@H](O)C2)cc1 [Example 17, (3S,4R)-1-((4-(6-methyl-1H-pyrrolo[2,3-b]pyridin-5-yl)phenyl)sulfonyl)-4-((5-(trifluoromethyl)pyridin-2-yl)amino)piperidin-3-ol] | 1 to 10
N[C@H]1C[C@H](Nc2cc(-c3ccc(S(=O)(=O)N4CC[C@@H](Nc5ccc(C(F)(F)F)cn5)[C@@H](O)C4)cc3)ccn2)C1 [Compound 128] | < 1
O=S(=O)(c1ccc(-c2ccc(N3CC[C@H](O)C3)nc2)cc1)N1CC[C@@H](Nc2ccc(C(F)(F)F)cn2)[C@@H](O)C1 [Compound 175] | < 1
N[C@H]1C[C@@H](Nc2ccc(-c3ccc(S(=O)(=O)N4CC[C@@H](Nc5ccc(C(F)(F)F)cn5)[C@@H](O)C4)cc3)cn2)C1 [Compound 97] | < 1
O=C1CN(c2ccc(-c3ccc(S(=O)(=O)N4CC[C@@H](Nc5ccc(C(F)(F)F)cn5)[C@@H](O)C4)cc3)cn2)CCN1 [Compound 178] | < 1
Cc1nnc(-c2cc(-c3ccc(S(=O)(=O)N4CC[C@@H](Nc5ccc(C(F)(F)F)cn5)[C@@H](O)C4)cc3)ccn2)[nH]1 [Compound 64, (3S,4R)-1-((4-(2-(5-methyl-4H-1,2,4-triazol-3-yl)pyridin-4-yl)phenyl)sulfonyl)-4-((5-(trifluoromethyl)pyridin-2-yl)amino)piperidin-3-ol] | 1 to 10
Cc1cc2[nH]nc(C#N)c2cc1-c1ccc(S(=O)(=O)N2CC[C@@H](Nc3ccc(C(F)(F)F)cn3)[C@@H](O)C2)cc1 [Example 36, 5-(4-(((3S,4R)-3-hydroxy-4-((5-(trifluoromethyl)pyridin-2-yl)amino)piperidin-1-yl)sulfonyl)phenyl)-6-methyl-1H-indazole-3-carbonitrile] | < 1
N#Cc1ccc(N[C@@H]2CCN(S(=O)(=O)c3ccc(-c4cnc5[nH]cc(C#N)c5c4)cc3)C[C@@H]2O)nc1 [Example 34, 5-[4-[[(3S,4R)-4-[(5-cyano-2-pyridyl)amino]-3-hydroxy-1-piperidyl]sulfonyl]phenyl]-1H-pyrrolo[2,3-b]pyridine-3-carbonitrile] | < 1
O=S(=O)(c1ccc(-c2cnc3[nH]nc(-c4ncc[nH]4)c3c2)cc1)N1CC[C@@H](Nc2ccc(C(F)(F)F)cn2)[C@@H](O)C1 [Compound 191] | < 1
Nc1n[nH]c2ncc(-c3ccc(S(=O)(=O)N4CC[C@@H](Nc5ccc(C(F)(F)F)cn5)[C@@H](O)C4)cc3)cc12 [Example 38, (3S,4R)-1-((4-(3-amino-1H-pyrazolo[3,4-b]pyridin-5-yl)phenyl)sulfonyl)-4-((5-(trifluoromethyl)pyridin-2-yl)amino)piperidin-3-ol] | < 1
O=S(=O)(c1ccc(-c2ccc(N3CCCCC3)nc2)cc1)N1CC[C@@H](Nc2ccc(C(F)(F)F)cn2)[C@@H](O)C1 [Compound 109] | 1 to 10
COc1ccc(-c2ccc(S(=O)(=O)N3CC[C@@H](Nc4ccc(C(F)(F)F)cn4)[C@@H](O)C3)cc2)cn1 [Compound 154] | 1 to 10
O=S(=O)(c1ccc(-c2ccnc(N3CCOCC3)c2)cc1)N1CC[C@@H](Nc2ccc(C(F)(F)F)cn2)[C@@H](O)C1 [Compound 146] | < 1
Cc1noc(-c2cc(-c3ccc(S(=O)(=O)N4CC[C@@H](Nc5ccc(C(F)(F)F)cn5)[C@@H](O)C4)cc3)ccn2)n1 [Compound 66, (3S,4R)-1-((4-(2-(3-methyl-1,2,4-oxadiazol-5-yl)pyridin-4-yl)phenyl)sulfonyl)-4-((5-(trifluoromethyl)pyridin-2-yl)amino)piperidin-3-ol] | 1 to 10
COc1cc(-c2ccc(S(=O)(=O)N3CC[C@@H](Nc4ccc(C(F)(F)F)cn4)[C@@H](O)C3)cc2)cc2c1NC(=O)C2 [Example 15, 5-(4-(((3S,4R)-3-hydroxy-4-((5-(trifluoromethyl)pyridin-2-yl)amino)piperidin-1-yl)sulfonyl)phenyl)-7-methoxyindolin-2-one] | < 1

SMILES | IC50 [nM]
N#Cc1ccc(N[C@@H]2CCN(S(=O)(=O)c3ccc(-c4ccnc(C(N)=O)c4)cc3)C[C@@H]2O)nc1 [Example 37, 4-(4-(((3S,4R)-4-((5-cyanopyridin-2-yl)amino)-3-hydroxypiperidin-1-yl)sulfonyl)phenyl)picolinamide] | < 1
CN(C)C(=O)N1Cc2ccc(-c3ccc(S(=O)(=O)N4CC[C@@H](Nc5ccc(C(F)(F)F)cn5)[C@@H](O)C4)cc3)cc2C1 [Compound 186] | < 1
CN(C)c1cncc(-c2ccc(S(=O)(=O)N3CC[C@@H](Nc4ccc(C(F)(F)F)cn4)[C@@H](O)C3)cc2)c1 [Compound 111] | < 1
O=S(=O)(c1ccc(-c2ccnc(NC3CCC3)c2)cc1)N1CC[C@@H](Nc2ccc(C(F)(F)F)cn2)[C@@H](O)C1 [Compound 140] | < 1
O=C1NCCc2ccc(-c3ccc(S(=O)(=O)N4CC[C@@H](Nc5ccc(C(F)(F)F)cn5)[C@@H](O)C4)cc3)cc21 [Example 3, 7-(4-(((3S,4R)-3-hydroxy-4-((5-(trifluoromethyl)pyridin-2-yl)amino)piperidin-1-yl)sulfonyl)phenyl)-3,4-dihydroisoquinolin-1(2H)-one] | < 1
Cc1cc(-c2ccc(S(=O)(=O)N3CC[C@@H](Nc4ccc(C(F)(F)F)cn4)[C@@H](O)C3)cc2)cc2c(C#N)nn(C)c12 [Compound 121] | < 1
O=c1[nH]c2cc(-c3ccc(S(=O)(=O)N4CC[C@@H](Nc5ccc(C(F)(F)F)cn5)[C@@H](O)C4)cc3)cnc2[nH]1 [Example 54, 6-(4-(((3S,4R)-3-hydroxy-4-((5-(trifluoromethyl)pyridin-2-yl)amino)piperidin-1-yl)sulfonyl)phenyl)-1,3-dihydro-2H-imidazo[4,5-b]pyridin-2-one] | < 1
CNC(=O)c1cc(-c2ccc(S(=O)(=O)N3CC[C@@H](Nc4ccc(C(F)(F)F)cn4)[C@@H](O)C3)cc2)ccn1 [Example 50, 4-(4-(((3S,4R)-3-hydroxy-4-((5-(trifluoromethyl)pyridin-2-yl)amino)piperidin-1-yl)sulfonyl)phenyl)-N-methylpicolinamide] | < 1
CN1CC2(C1)CN(c1cc(-c3ccc(S(=O)(=O)N4CC[C@@H](Nc5ccc(C(F)(F)F)cn5)[C@@H](O)C4)cc3)ccn1)C2 [Compound 142] | 1 to 10
COc1nccc(-c2ccc(S(=O)(=O)N3CC[C@@H](Nc4ccc(C(F)(F)F)cn4)[C@@H](O)C3)cc2)c1C [Compound 155] | < 1
Cc1cc(-c2ccc(S(=O)(=O)N3CC[C@@H](Nc4ccc(C(F)(F)F)cn4)[C@@H](O)C3)cc2)cc2c1CN(C(=O)N(C)C)C2 [Compound 80, 6-(4-(((3S,4R)-3-hydroxy-4-((5-(trifluoromethyl)pyridin-2-yl)amino)piperidin-1-yl)sulfonyl)phenyl)-N,N,4-trimethylisoindoline-2-carboxamide] | < 1
Cc1nnc(-c2cc(-c3ccc(S(=O)(=O)N4CC[C@@H](Nc5ccc(C(F)(F)F)cn5)[C@@H](O)C4)cc3)c(C)cn2)o1 [Compound 213] | < 1
Cc1c(-c2ccc(S(=O)(=O)N3CC[C@@H](Nc4ccc(C(F)(F)F)cn4)[C@@H](O)C3)cc2)cnc(N)c1C [Compound 148] | < 1
O=C1CCc2cc(-c3ccc(S(=O)(=O)N4CC[C@@H](Nc5ccc(C(F)(F)F)cn5)[C@@H](O)C4)cc3)ccc2N1 [Example 2, 6-(4-(((3S,4R)-3-hydroxy-4-((5-(trifluoromethyl)pyridin-2-yl)amino)piperidin-1-yl)sulfonyl)phenyl)-3,4-dihydroquinolin-2(1H)-one] | < 1
NC(=O)N1Cc2ccc(-c3ccc(S(=O)(=O)N4CC[C@@H](Nc5ccc(C(F)(F)F)cn5)[C@@H](O)C4)cc3)cc2C1 [Example 4, 5-(4-(((3S,4R)-3-hydroxy-4-((5-(trifluoromethyl)pyridin-2-yl)amino)piperidin-1-yl)sulfonyl)phenyl)isoindoline-2-carboxamide] | < 1
Cc1nc2[nH]cc(C#N)c2c(C)c1-c1ccc(S(=O)(=O)N2CC[C@@H](Nc3ccc(C(F)(F)F)cn3)[C@@H](O)C2)cc1 [Example 63, 5-(4-(((3S,4R)-3-hydroxy-4-((5-(trifluoromethyl)pyridin-2-yl)amino)piperidin-1-yl)sulfonyl)phenyl)-4,6-dimethyl-1H-pyrrolo[2,3-b]pyridine-3-carbonitrile] | < 1
